Laboratory results reported in article PMC8876959, “Comparative Evaluation of Radiochemical and Biological Properties of ^131I- and [^99mTc]Tc(CO)3-Labeled RGD Analogues Planned to Interact with the αvβ3 Integrin Expressed in Glioblastoma” (Pharmaceuticals, 2022).
Non-standard residues stand in square brackets, D forms with d. Residues, ends and D or L forms follow the SMILES beside them. Tyr(3,5-I2) = N[C@@H](Cc1cc(I)c(O)c(I)c1)C(=O)O

CC(C)[C@H](NC(=O)[C@H](Cc1cc(I)c(O)c(I)c1)NC(=O)[C@H](CC(=O)O)NC(=O)CNC(=O)[C@H](CCCNC(=N)N)NC(=O)CN)C(=O)O [[^131I]I-GRGDYV] (H-GRGD[Tyr(3,5-I2)]V-OH)
Radiochemical purity in human serum up to 24 h: > 94%
